From PMC7759402 (Journal of Analytical Methods in Chemistry, 2020)

Assays:
[1] = test system: pancreatic ductal adenocarcinoma xenograft; details: combination therapy of VS-5584 with ERK inhibitor SCH772984; cited from earlier work
[2] = Stability of VS-5584 in rat plasma (QC samples, UPLC-MS/MS); type: in vitro ADME; details: for Stability RE (%): n = 3
Procedure: Quality control (QC) samples were prepared at LLOQ, low, medium, and high concentrations (1.0, 2.0, 200, and 800 ng/mL) separately in the same manner. The IS working solution was prepared in acetonitrile at a concentration of 40 ng/mL.
Stability studies were conducted under a variety of different conditions. The accuracy and precision under the above conditions should be within ±15%.

SMILES | tumor suppression rate [1] | stability of processed samples (in words) ([2]; 4°C in an autosampler for 12 h) | Stability RE (%) ([2]; processed samples, 4°C in autosampler for 12 h, spiked 2.0 ng/mL) | Stability RE (%) ([2]; processed samples, 4°C in autosampler for 12 h, spiked 200 ng/mL) | Stability RE (%) ([2]; processed samples, 4°C in autosampler for 12 h, spiked 800 ng/mL) | Stability RE (%) ([2]; rat plasma, 12 h at room temperature, spiked 2.0 ng/mL) | Stability RE (%) ([2]; rat plasma, 12 h at room temperature, spiked 200 ng/mL) | Stability RE (%) ([2]; rat plasma, 12 h at room temperature, spiked 800 ng/mL) | Stability RE (%) ([2]; rat plasma, 30 days at −25°C, spiked 2.0 ng/mL) | Stability RE (%) ([2]; rat plasma, 30 days at −25°C, spiked 200 ng/mL) | Stability RE (%) ([2]; rat plasma, 30 days at −25°C, spiked 800 ng/mL) | Stability RE (%) ([2]; rat plasma, three freeze–thaw cycles, spiked 2.0 ng/mL) | Stability RE (%) ([2]; rat plasma, three freeze–thaw cycles, spiked 200 ng/mL) | Stability RE (%) ([2]; rat plasma, three freeze–thaw cycles, spiked 800 ng/mL) | stability in rat plasma (in words) ([2]; −25°C for 30 days, room temperature for 12 h, three freeze-thaw cycles)
O=C(Nc1ccc2[nH]nc(-c3ccncc3)c2c1)[C@@H]1CCN(CC(=O)N2CCN(c3ccc(-c4ncccn4)cc3)CC2)C1 [SCH772984] | 80% | – | – | – | – | – | – | – | – | – | – | – | – | – | –
Cc1nc2c(-c3cnc(N)nc3)nc(N3CCOCC3)nc2n1C(C)C [VS-5584] | – | remained intact | −8.7% | 10.4% | 9.9% | −7.0% | 10.7% | 9.2% | 9.4% | −12.2% | −5.7% | −6.5% | −6.5% | 7.4% | stable
